Laboratory results: PubChem BioAssay AID1996
In brackets after ≈: the same amount, converted by molar mass.

conditions: buffer; pH 7.4; 200.0 µM

Structure (SMILES)	solubility kinetic [µg/mL]
S=C(NCc1ccc(Cl)cc1)NN1CCOCC1	> 42.9
COC(=O)NC(C)N1C(=O)C2C3C=CC(C3)C2C1=O (stereo not given)	> 39.6
Nc1nonc1C(=O)N1CCCCC1	28.2 (≈ 144 µM)
CCN1CCN(CCC(=O)Nc2cccc(C)c2)CC1.Cl	46.4
CC(C)(C)NS(=O)(=O)c1ccc(NC(=S)NC(=O)C2CCC2)cc1	1.1 (≈ 2.98 µM)
CC(=O)NC1CC2CCCC(C1)N2Cc1ccc(C)cc1 (stereo not given)	> 43
COc1cc(NS(=O)(=O)c2cc(C(=O)NCCc3ccccn3)ccc2OC)cc(OC)c1	66.4 (≈ 141 µM)
CC(C)[C@H](NC(=O)c1ccccc1Cl)C(=O)Nc1ccc(S(=O)(=O)Nc2nccs2)cc1	14.6 (≈ 29.6 µM)
O=c1c(Cc2ccc(F)cc2)c(O)ccn1CCc1ccccn1	> 48.7
CCC(=O)Nc1cc(C(=O)O)ccc1Sc1ccc(Cl)cc1	> 50.4
CN1C/C(=C/c2ccncc2)C(=O)/C(=C/c2ccncc2)C1	40.9 (≈ 140 µM)
C=CCn1c(O)c(C(CC)=Nc2ccc3c(c2)CCC3)c(=O)[nH]c1=O	1.4 (≈ 4.12 µM)
O=C(O)C1CCCN1S(=O)(=O)c1ccc(Br)cc1 (stereo not given)	> 50.1
CCC(=O)N1CCCc2ccccc21	22.4 (≈ 118 µM)
COc1ccc(NC(=O)CCn2ccnc2)c(OC)c1	41.1 (≈ 149 µM)
CN1CCCN=C1COC(=O)C(O)(c1ccccc1)C1CCCCC1.Cl (stereo not given)	> 57.1
CC(=O)Nc1cccc(C(=O)N2CCN(S(=O)(=O)Cc3ccccc3)CC2)c1	> 60.2
Cc1cc(C(=O)Nc2ccc(C#N)cc2)on1	10.3 (≈ 45.3 µM)
CCN(CC(=O)Nc1ccc(NC(C)=O)cc1)C(=O)c1c(C)nn(-c2ccc(F)cc2)c1Cl	> 70.8
O=C(CSc1nc2ccccc2c(=O)n1-c1ccccc1F)N1CCOCC1	54.3 (≈ 136 µM)
COc1ccc(N(Cc2cc(=O)[nH]c3ccccc23)C(C)=O)cc1	> 48.4
Cc1nc(C)c(C(=O)OCC(=O)Nc2ccccc2)s1	> 43.6

Structure (SMILES)	solubility kinetic [µg/mL]
CC(C)(C)c1ccc(N2C(=O)CC(c3ccccc3)C2=O)cc1 (stereo not given)	< 0.7
COC(CNc1ccc([N+](=O)[O-])c(NCC(OC)OC)c1C#N)OC	19 (≈ 53.6 µM)
COc1cc(NC(=S)Nc2cccnc2)cc(OC)c1	< 0.2
O=C(Nc1ncc(Cc2cccc([N+](=O)[O-])c2)s1)c1ccco1	0.7 (≈ 2.13 µM)
Cc1csc(C(=O)O)c1NC(=O)c1c(Cl)cccc1Cl	40.7 (≈ 123 µM)
O=C(COC(=O)c1cccc(F)c1)Nc1cccnc1Cl	41.7 (≈ 135 µM)
COc1cc(CNCc2ccc3c(c2)OCO3)c([N+](=O)[O-])cc1OC	46.6 (≈ 135 µM)
Cc1ccc(NC(=O)NCCN2CCCCC2)cc1Cl	> 44.4
Oc1ccccc1-c1nc(NCc2ccccc2)c2ccccc2n1	< 0.2
CCOc1ccc(CNc2ccc(N3CCCC3)cc2)cc1	3.1 (≈ 10.5 µM)
Cc1ccc(OCCNC(=O)c2ccccc2F)cc1	36.5 (≈ 134 µM)
O/N=C\c1ccccc1Oc1ccc(F)cc1	32.3 (≈ 140 µM)
CC1(C)CC(=O)C2=C(C1)Nc1ccccc1S2	3 (≈ 12.2 µM)
COc1cc(C(=O)NCC(=O)OCc2ccc(F)cc2)cc(OC)c1OC	11.8 (≈ 31.3 µM)
COc1ccc(CC(=O)OCN2C(=O)c3ccccc3C2=O)cc1OC	> 53.3
CC(C)CCN1CCN(C2CSCCSC2)CC1CCO (stereo not given)	> 49.9
CN1CCN(CC(O)COc2ccc(C(=O)O)cc2)CC1 (stereo not given)	35.5 (≈ 121 µM)
CCC(=O)N(CCc1ccccc1)Cc1cc2cccc(C)c2[nH]c1=O	2.3 (≈ 6.6 µM)
Cc1c(C(=O)C(=O)NCCCn2ccnc2)c2ccccc2n1C	> 48.7
COc1cc(OC)cc(C(=O)NCC(C)NC(=O)c2cc(OC)cc(OC)c2)c1 (stereo not given)	39.6 (≈ 98.4 µM)
O=C(O)CSCc1nc2scc(-c3ccccc3)c2c(=O)[nH]1	> 49.9
Cc1cc(NC(=O)C(C)SCC(=O)N(C)Cc2c(F)cccc2Cl)no1 (stereo not given)	> 60

Structure (SMILES)	solubility kinetic [µg/mL]
CC(NC(=O)c1cccc(S(=O)(=O)N(C)C)c1)C1CC2CCC1C2 (stereo not given)	15.5 (≈ 44.2 µM)
Cc1cccc(N2C(=O)C(Cl)=C(N3CCOCC3)C2=O)c1	> 46
O=C(COC(=O)C1=COCCO1)Nc1ccc(Br)cc1Br	6.6 (≈ 15.7 µM)
O=S(=O)(c1cc(F)ccc1F)N1CCC2(CC1)OCCO2	> 47.9
Cc1ccc(NC(=O)N(CCC#N)Cc2ccccc2)cc1	> 44
CCCS(=O)(=O)N1CCCC(C(=O)NCC(OC)OC)C1 (stereo not given)	45.2 (≈ 140 µM)
Cc1ccnc(NC(=O)CC(c2ccccc2)c2ccccc2)n1	35.7 (≈ 112 µM)
O=[N+]([O-])c1ccc2c(c1)Nc1nc3ccccc3nc1N2	1.4 (≈ 5.01 µM)
Cc1cc(/C=C(\C#N)C(=O)N2CCCCC2)cc(C)c1O	> 42.7
O=C(NCCc1ccccc1)c1cccc(Br)c1	10 (≈ 32.9 µM)
Cl.c1ccc(CN2CCNCC2)nc1	30.1
CC1(C)OC(=O)C(=NNc2ccc(C(=O)O)cc2)C(=O)O1	> 43.8
C=CCn1cc(/C=C2\SC(N3CCOCC3)=NC2=O)c2ccccc21	9.5 (≈ 26.9 µM)
O=C1CSC(c2cccnc2)N1CC1CC1 (stereo not given)	> 35.1
Cc1cccc(C(=O)NCC(=O)N(C)Cc2nc3ccccc3c(=O)[nH]2)c1	> 54.7
Cc1cc(Cl)cc(C)c1OCC(=O)NC1CCCCCC1	1.9 (≈ 6.13 µM)
CN1CCCN(C(=O)COc2ccc(F)cc2F)CC1	> 42.6
NC(=O)C1CCN(C(=O)Nc2csc3ccccc23)CC1	42 (≈ 138 µM)
COc1cc(C(=O)Nc2nnc(C)s2)c([N+](=O)[O-])cc1OC	> 48.6
Fc1ccc(-c2csc(Nc3ccccn3)n2)cc1	0.6 (≈ 2.21 µM)
O=C(COC(=O)c1cc(Cl)ccc1[N+](=O)[O-])NC1CC1	> 44.8
Cc1ccccc1NC(=O)COC(=O)CCSc1ccccc1	13.1 (≈ 39.8 µM)

Structure (SMILES)	solubility kinetic [µg/mL]
COc1cc(OC)nc(Oc2ccc(N)c(C)c2)n1	> 39.2
CC(=O)c1ccc(N2C(=O)C3C4C=CC(CC4)C3C2=O)cc1 (stereo not given)	> 44.3
COC(=O)C(C(C)C)N1CCc2c(C)nc3c(C#N)cnn3c21 (stereo not given)	> 47
Cc1ccccc1CNC(=O)C1CCCN(c2cnccn2)C1 (stereo not given)	44.3 (≈ 143 µM)
COc1ccc(C(CNS(=O)(=O)c2ccc(NC(C)=O)c(OC)c2)N2CCCCC2)cc1.Cl (stereo not given)	> 74.7
COc1ccc(NC(=O)Cc2ccsc2)c(OC)c1	> 41.6
COc1ccccc1NC(=O)C(C)N(C)CC(=O)Nc1cccc2ccccc12.Cl (stereo not given)	> 64.2
CCOCCCNC(=O)CN1CCN(Cc2ccc(Cl)cc2)C1=O	46.6 (≈ 132 µM)
CC(=O)c1c[nH]c(C(=O)NC2CCCCCC2)c1	34.9 (≈ 141 µM)
Cn1c(=O)[nH]c(=O)c2c1[nH]c(=S)n2Cc1ccccc1	> 43.2
Cc1nc(N)nc(N/N=C/c2ccccc2)n1	> 34.2
COc1ccc(OC)c(C(=O)COC(=O)c2ccc([N+](=O)[O-])o2)c1	> 50.3
Cc1ccc(NC(=O)C2CCCC2)c(Br)c1	8.6 (≈ 30.5 µM)
COCCN(Cc1ccccc1)C(=O)C1CCN(C(=O)Nc2ccccc2)CC1	> 59.3
Cc1ccc(N2CC(C(=O)Nc3ccccc3N3CCCC3)CC2=O)cc1 (stereo not given)	21.4 (≈ 58.9 µM)
CCNc1nc2cccnc2s1	24.7 (≈ 138 µM)
COc1cccc(OC)c1C(=O)Nc1ccc2nc(C)c(C)nc2c1	4.5 (≈ 13.3 µM)
CC12CCC(=O)N1C(C(=O)Nc1nc3ccccc3s1)CS2 (stereo not given)	13 (≈ 39 µM)
Cc1cc(NC(=O)CCl)no1	> 26.2
